This note sets out measurements from patent publication US7763582B2 (University of Medicine and Dentistry Of New Jersey, priority 2006, dated 2010).

The subject of assay [1] is fractured femora. The assay can be described thus: Mechanical (torsional) testing of fractured femora, BB Wistar rats (Example 1). The format is in vivo. As to conditions: 4 weeks. An excerpt:
(§1) A closed mid-diaphyseal fracture was created in the right femur using the following modification of the methods described in Bonnarens, F., and Einhorn, T. A., “Production of a standard closed fracture in laboratory animal bone,” J. Orthop. Res., vol. 2, pages 97-101 (1984). Once a medial, parapatellar incision was made, the patella was dislocated laterally and the interchondylar notch of the distal femur was exposed. An entry hole was made with an 18 gauge needle and the femur was reamed. A 16 gauge teflon cannula was then inserted into the intramedullary canal to stabilize the fracture while a closed midshaft fracture was created unilaterally with the use of a three-point bending, Einhorn fracture machine. Once the fracture was created, the cannula was removed and replaced with a 1.2 mm hollow rod in the Sprague-Dawley rats and a 1 mm Kirschner wire in the BB Wistar rat. […] The animals were allowed to ambulate freely immediately post-fracture.
(§2) Fractured and contralateral femora were resected at 4 weeks and cleaned of soft tissue. Femora were cleaned of soft tissue and the intramedullary rod was removed. Samples were wrapped in saline (0.9% NaCl) soaked gauze and stored at −20° C. Prior to testing, all femora were removed from the freezer and allowed to thaw to room temperature for three to four hours. The proximal and distal ends of the fractured and contralateral femora were embedded in Wood's metal. Torsional testing was conducted using a servohydraulics machine (MTS Systems Corp., Eden Prairie, Minn.) with a 20 Nm reaction torque cell (Interface, Scottsdale, Ariz.) and tested to failure at a rate of 2.0 deg/sec.
(§3) The peak torque (T), torsional rigidity (TR), […] (G) and the maximum shear stress ( ) were determined through standard equations modeling each femur as a hollow ellipse. In order to compare the biomechanical parameters between different groups, the data was normalized by dividing each fractured femur value by its corresponding intact, contralateral femur value.

For assay [2], the system named is fractured femora. Kind of assay: Qualitative histology of early fracture callus at day 4. The format is in vivo, BB Wistar rats.
Excerpt: as §1
The fractured femora were resected at day 4, decalcified, embedded and sectioned using standard histological techniques. To identify cartilage formation, sections were stained with Accustain™ Trichrome Staining kit (Masson, Sigma Diagnostics, St. Louis, Mo.) for histologic observation. The staining procedure consisted of fixing the sections in Accustain™ Bouins solution (Sigma Diagnostics, St. Louis, Mo.) overnight. […]

Assay [3] has as its system fractured femora. The assay can be described thus: Mechanical (torsional) testing of fractured femora, Sprague-Dawley rats. Format: in vivo. As to conditions: 4 weeks.
Excerpt: as §1, §2, §3

Setting [4] is: fractured femora, versus untreated, FIG. 4.
The mark [5] stands for this setting: normalized to intact contralateral femora.
[6] abbreviates: fractured femora, versus untreated, FIG. 3.

ultralente insulin: in the assay on fractured femora [1] (setting [4]), the maximum shear stress entry is “significantly increased”, the sheer modulus result was “trending towards significance”, the torque to failure entry is “significantly increased” and the torsional rigidity entry was “trending towards significance”. In the assay with fractured femora [1] (versus untreated group, FIG. 4), the “mechanical properties of the fractured femora” value is given as “improved”. Moreover, in the assay with fractured femora [1] (setting [5]), the percent sheer modulus result is on record as “trending towards significance” and the percent torsional rigidity result was “trending towards significance”. Besides, the “osteoid matrix in callus” value in the assay with fractured femora [2] (not present in untreated group) is recorded as “present”. Also, the “chondrocytes in fracture callus (histology)” value in the assay with fractured femora [2] (untreated group showed only proliferating chondrocytes, FIG. 2) is “presence of proliferating and hypertrophic chondrocytes”. In the assay with fractured femora [3] (setting [6]), the maximum shear stress entry is “significantly increased”, the sheer modulus result is listed as “significantly increased”, the torque to failure result was “significantly increased” and the torsional rigidity entry was “significantly increased”. Moreover, in the assay with fractured femora [3] (versus untreated group, FIG. 3), the “mechanical properties of the fractured femora” value is “improved”. Also, in the assay with fractured femora [3] (setting [5]), the “percent maximum shear stress” value was “trending towards significance”, the percent sheer modulus result is given as “significantly increased”, the “percent torque to failure” value was “trending towards significance” and the percent torsional rigidity result is “significantly increased”.
